Measured values published in patent publication US20240025906A1 (NEURON23, INC., priority 2022, published 2024).

Tests used:
[1] = test system: JAK1/TYK2 pSTAT5 (Tyr694/699) in THP-1 cell line; experiment: IFNa-stimulated JAK1/TYK2 pSTAT5 (Tyr694/699) inhibition cellular assay, AlphaLISA; assay type: cell-based; conditions: Homo sapiens; THP-1 cells, IFNa-stimulated pSTAT5 (Tyr694/699), AlphaLISA (Assay B); read-out: Cellular_THP1_IFNa-pSTATS_TYK2
In short: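 THP-1 cells (2e4/well in HBSS) were preincubated with compound (8 points, 6-fold steps from 10000 nM final) for 1 h at 37 °C, then stimulated with IFNa (added at 100 ng/mL) for 30 min. Lysate pSTAT5 was read by AlphaLISA at 615 nm. IC50 came from a 4-parameter fit with bottom 0 and Hill −1.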

TYK2 JH2 = biological target: T1, TYK2 JH2 (Homo sapiens, UniProt P29597); experiment: TYK2 JH2 binding assay (KINOMEscan KdELECT competitive binding); conditions: TYK2 JH2 domain, KINOMEscan KdELECT (Assay A); read-out: Biochemical TYK2_DiscoverX_JH2_BND_Kd
T1 construct: purchased DiscoverX (KINOMEscan KdELECT service); host or cells: E. coli BL21-derived (T7 phage display) or HEK-293
T1 sequence (P29597 589-875 limits assumed): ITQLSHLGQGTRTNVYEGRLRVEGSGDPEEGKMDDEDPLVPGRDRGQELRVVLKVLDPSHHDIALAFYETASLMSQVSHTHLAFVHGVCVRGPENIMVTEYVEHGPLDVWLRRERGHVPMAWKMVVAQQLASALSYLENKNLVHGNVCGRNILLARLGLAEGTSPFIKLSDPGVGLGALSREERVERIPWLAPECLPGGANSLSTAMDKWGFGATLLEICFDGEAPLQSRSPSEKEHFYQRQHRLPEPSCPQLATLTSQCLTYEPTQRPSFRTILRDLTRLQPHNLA
In short: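 The assay measures displacement of DNA- or phage-tagged TYK2 pseudokinase domain from an affinity resin; compound binding lowers the amount captured, read by qPCR. Incubation lasts 1 h at room temperature.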

Psoriasis patients = conditions: humans; TYK2 inhibitor; background statement citing Armstrong et al, Ann of Rheu Dis, 2020; cited from earlier work

Compound	IC50 [1] [nM]	Kd (TYK2 JH2) [nM]	efficacy in Psoriasis patients (Psoriasis patients)
CNc1ncc(-c2nc3cc(NC(=O)CC4CC4)ccc3o2)c2cc(NC(=O)C3CC3)ncc12 [Example 1093, N-(5-(5-(2-cyclopropylacetamido)benzo[d]oxazol-2-yl)-8-(methylamino)-2,7-naphthyridin-3-yl)cyclopropanecarboxamide]	≤ 500	≤ 100	
CNc1ncc(-c2nc3ccc(N4CCOCC4)cc3s2)c2cc(NC(=O)C3CC3)ncc12 [Example 1094, N-(8-(methylamino)-5-(6-morpholinobenzo[d]thiazol-2-yl)-2,7-naphthyridin-3-yl)cyclopropanecarboxamide]	≤ 500	≤ 100	
[2H]C([2H])(C)Nc1ncc(-c2nc3ccc(N4CCOCC4)cn3n2)c2cc(NC(=O)[C@H]3C[C@H]3C)ncc12 [Example 1095, (1S,2R)—N-(8-((ethyl-1,1-d2)amino)-5-(6-morpholino-[1,2,4]triazolo[1,5-a]pyridine-2-yl)-2,7-naphthyridin-3-yl)-2-methylcyclopropane-1-carboxamide]	≤ 500	≤ 100	
[2H]C([2H])(C)Nc1ncc(-c2nc3ccc(N4CCOCC4)cn3n2)c2cc(NC(=O)C3CC3)ncc12 [Example 1096, N-(8-((ethyl-1,1-d2)amino)-5-(6-morpholino-[1,2,4]triazolo[1,5-a]pyridin-2-yl)-2,7-naphthyridin-3-yl)cyclopropanecarboxamide]	≤ 500	≤ 100	
CNc1ncc(-c2nc3cc(OC)ccc3o2)c2cc(NC(=O)NC3CC3)ncc12 [Example 1097, 1-cyclopropyl-3-(5-(5-methoxybenzo[d]oxazol-2-yl)-8-(methylamino)-2,7-naphthyridin-3-yl)urea]	≤ 500	≤ 100	
CNc1ncc(-c2nc3cc(N4CCOCC4)ccc3o2)c2cc(Nc3ccc(C(C)(C)O)cn3)ncc12 [Example 1098]	≤ 500	≤ 100	
CNc1ncc(-c2nc3cc(C(=O)NC4CC4)ccc3o2)c2cc(NC(=O)C3CC3)ncc12 [Example 1099, 2-(6-(cyclopropanecarboxamido)-1-(methylamino)-2,7-naphthyridin-4-yl)-N-cyclopropylbenzo[d]oxazole-5-carboxamide]	≤ 500	≤ 100	
CCNC(=O)c1ccc2oc(-c3cnc(NC)c4cnc(NC(=O)C5CC5)cc34)nc2c1 [Example 1100, 2-(6-(cyclopropanecarboxamido)-1-(methylamino)-2,7-naphthyridin-4-yl)-N-ethylbenzo[d]oxazole-5-carboxamide]	≤ 500	≤ 100	
CNc1ncc(-c2nc3cc(C(=O)NCC4CC4)ccc3o2)c2cc(NC(=O)C3CC3)ncc12 [Example 1101, 2-(6-(cyclopropanecarboxamido)-1-(methylamino)-2,7-naphthyridin-4-yl)-N-(cyclopropylmethyl)benzo[d]oxazole-5-carboxamide]	≤ 500	≤ 100	
[2H]C([2H])(C)Nc1ncc(-c2nc3cc(OC)ccc3o2)c2cc(NC(=O)C3CC3)ncc12 [Example 1102, N-(8-((ethyl-1,l-rig)amino)-5-(5-methoxybenzo[d]oxazol-2-yl)-2,7-naphthyridin-3-yl)cyclopropanecarboxamide]	≤ 500	≤ 100	
CNc1ncc(-c2cc3ccncc3o2)c2cc(Nc3cccc(OCCCCO)n3)ncc12 [Example 1103, 4-((6-((5-(furo[2,3-c]pyridin-2-yl)-8-(methylamino)-2,7-naphthyridin-3-yl)amino)pyridin-2-yl)oxy)butan-1-ol]	≤ 500	≤ 100	
CNc1ncc(C#Cc2ccc(-n3ccccc3=O)cc2)c2cc(NC(=O)C3(F)CC3)ncc12 [Example 1138, 1-fluoro-N-(8-(methylamino)-5-((4-(2-oxopyridin-1(2H)-yl)Phenyl)ethynyl)-2,7-naphthyridin-3-yl)cyclopropanecarboxamide]	≤ 500	≤ 100	
CNc1ncc(C#Cc2ccc(-n3c(=O)ccn3C)cc2)c2cc(NC(=O)[C@H]3C[C@H]3C)ncc12 [Example 1142, (1S,2R)-2-methyl-N-[8-(methylamino)-5-[2-[4-(2-methyl-5-oxo-pyrazol-1-yl)phenyl]ethynyl]-2,7-naphthyridin-3-yl]cyclopropanecarboxamide]	≤ 500	≤ 100	
deucravacitinib			efficacy
